Data taken from PMC7377474, “Preclinical characterization of CPL302-253, a selective inhibitor of PI3Kδ, as the candidate for the inhalatory treatment and prevention of Asthma” (PLoS ONE, 2020).
Values joined by “and” are separate entries in the source; they are usually repeats but may differ in a detail not shown here. Identical values can stand only once.

Key:
[1] = Pharmacokinetics after intratracheal instillation; type: in vivo; details: mouse
Experimental: Female Balb/c mouse (20–25 g bodyweight) were purchased from Nofer Institute (Lodz, Poland). Animals were given 0.3 mg/kg or 1 mg/kg single dose of CPL302-253 by intratracheal instillation. The compound was suspended in 0.2% DMSO in saline. 5 animals per time-point were sacrificed 10 min, 30 min, 1 h, 2 h, 4 h, 7 h and 12 h after compound administration. The blood was collected by heart puncture to K2EDTA containing tubes and plasma samples were prepared by centrifugation. The Bronchoalveolar Lavage Fluid (BALF) was collected by flushing the lungs 2 times with 1 ml of saline. The lungs were homogenized in 10% DMSO solution in water. 3ml of the solution were used for 1 g of lung tissue. The samples were purified using acetonitrile and concentration of CPL302-253 was measured by LC-MS/MS with internal standard. The concentration of the compound is given per ml of plasma and BALF or g of lung tissue.
LC-MS analysis of PK samples was performed using 1290 Infinity II UPLC (Agilent) with 6460 Triple Quad MS (Agilent) in the positive mode and MRM mode. […] Samples were eluted using a timed, linear gradient from 10% B at 0.3 min to 95% B at 1.5 min, then back to 10% at 2.5 min. The column was equilibrated for up to 5 min. The flow rate was 0.4 mL/min. The injection volume was 5 μL. Calibration curve was prepared in the range from 1 ng/mL to 2000 ng/mL by spiking 45 μL of plasma with 5 μL of concentrated standard solution. All plasma based standard solutions and studied samples (50 μL) were subsequently extracted with 150 μL of acetonitrile containing donepezil as internal standard and centrifuged to provide supernatant ready for analysis.

[2] = test system: co-culture of dermal fibroblasts and keratinocytes; assay: BioMAP profiling, KF3CT system; type: cell-based, human
Experimental: BioMap Profiling study was performed by DiscovereX according to service provider’s protocol. In brief cultures or co-cultures of human primary cells were treated with sets of stimulators specific for cell subsets. […] The assays included positive and negative controls as well as vehicle control. The expression of biomarkers specific for each system was measured by ELISA and other techniques.

PI3Kβ = PI3Kβ (Homo sapiens, UniProt P42338); assay: KINOMEScan competitive binding assay, Kd; parameters: purchased Discoverex (KINOMEscan service)
Experimental: (§1) The inhibitor-kinase binding affinity was assessed in KINOMEscan™ assay (Discoverex) according to service provider’s protocol. In brief, in this binding assay the studied compound in solution is incubated with DNA-tagged kinase and kinase active-site directed ligand bound to the beads. The compound competes for binding to kinase with the immobilized ligand. After incubation beads are removed from the solution and kinase bound to ligand is quantified by qPCR. The strength of compound binding is determined based on its ability to block kinase-ligand binding. 11-point 3-fold serial dilution of CPL302-253 was used in order to determine its binding constants (Kd) against different isotypes of class I PI3K. The single concentration of CPL302-253 was used in order to determine its specificity in abroad panel of 468 human kinases. The measure of compounds affinity to each kinase in the panel was the percentage of kinase activity inhibition by tested ligand in comparison to the control.

PI3Kγ = PI3Kγ (Homo sapiens, UniProt P48736); assay: KINOMEScan competitive binding assay, Kd; parameters: purchased Discoverex (KINOMEscan service)
Experimental: as §1

PI3Kα = PI3Kα (Homo sapiens, UniProt P42336); assay: KINOMEScan competitive binding assay, Kd; parameters: purchased Discoverex (KINOMEscan service)
Experimental: as §1

neutrophils = assay: Neutrophils IL-8 production; type: cell-based, human; details: 6 h, 1 μM
Experimental: Neutrophils were isolated using EasySep Direct Human Neutrophil Isolation Kit (StemCell Technologies) from fresh whole blood of healthy donors by magnetic bead isolation according to manufacturer’s protocol. The cells were cultured in AIM V medium (Gibco). After 30 min pre-treatment with CPL302-253 (1 μM) neutrophils were stimulated with Cigarette Smoke Extract (CSE) (Murty Laboratories) at 100 μg/ml or LPS from E. coli O55:B5 (Sigma-Aldrich) at 1 μg/ml. After 6 h of incubation the culture supernatants were collected and IL-8 production was measured using IL-8 Human Uncoated ELISA Kit (Invitrogen) according to manufacturer’s protocol

PI3Kδ = molecular target: T1, PI3Kδ (Homo sapiens, UniProt O00329); assay: KINOMEScan competitive binding assay, Kd
T1 construct: purchased Discoverex (KINOMEscan service)
Experimental: as §1

HTR2B = molecular target: T2, HTR2B (Homo sapiens, UniProt P41595); assay: SafetyScan44; type: cell-based; details: 10 μM
T2 construct: purchased DiscoverX (Eurofins) SafetyScan44
Experimental: (§2) SafetyScan44 assay was performed by DiscoverX according to service provider’s protocol.

OPRK1 = molecular target: T3, OPRK1 (Homo sapiens, UniProt P41145); assay: SafetyScan44; type: cell-based; details: 10 μM
T3 construct: purchased DiscoverX (Eurofins) SafetyScan44
Experimental: as §2

CHRM1 = molecular target: T4, CHRM1 (Homo sapiens, UniProt P11229); assay: SafetyScan44; type: cell-based; details: 10 μM
T4 construct: purchased DiscoverX (Eurofins) SafetyScan44
Experimental: as §2

PDE3A = molecular target: T5, PDE3A (Homo sapiens, UniProt Q14432); assay: SafetyScan44; type: cell-based; details: 10 μM; Inhibitor mode
T5 construct: purchased DiscoverX (Eurofins) SafetyScan44
Experimental: as §2

HRH2 = molecular target: T6, HRH2 (Homo sapiens, UniProt P25021); assay: SafetyScan44; type: cell-based; details: 10 μM
T6 construct: purchased DiscoverX (Eurofins) SafetyScan44
Experimental: as §2

HTR1A = molecular target: T7, HTR1A (Homo sapiens, UniProt P08908); assay: SafetyScan44; type: cell-based; details: 10 μM
T7 construct: purchased DiscoverX (Eurofins) SafetyScan44
Experimental: as §2

SERT = molecular target: T8, SERT (Homo sapiens, UniProt P31645); assay: SafetyScan44; type: cell-based; details: 10 μM; Blocker mode
T8 construct: purchased DiscoverX (Eurofins) SafetyScan44
Experimental: as §2

COX2 = molecular target: T9, COX2 (Homo sapiens, UniProt P35354); assay: SafetyScan44; type: cell-based; details: 10 μM; Inhibitor mode
T9 construct: purchased DiscoverX (Eurofins) SafetyScan44
Experimental: as §2

CNR1 = molecular target: T10, CNR1 (Homo sapiens, UniProt P21554); assay: SafetyScan44; type: cell-based; details: 10 μM
T10 construct: purchased DiscoverX (Eurofins) SafetyScan44
Experimental: as §2

DAT = molecular target: T11, DAT (Homo sapiens, UniProt Q01959); assay: SafetyScan44; type: cell-based; details: 10 μM; Blocker mode
T11 construct: purchased DiscoverX (Eurofins) SafetyScan44
Experimental: as §2

NET = molecular target: T12, NET (Homo sapiens, UniProt P23975); assay: SafetyScan44; type: cell-based; details: 10 μM; Blocker mode
T12 construct: purchased DiscoverX (Eurofins) SafetyScan44
Experimental: as §2

OPRM1 = molecular target: T13, OPRM1 (Homo sapiens, UniProt P35372); assay: SafetyScan44; type: cell-based; details: 10 μM
T13 construct: purchased DiscoverX (Eurofins) SafetyScan44
Experimental: as §2

HTR3A = molecular target: T14, HTR3A (Homo sapiens, UniProt P46098); assay: SafetyScan44; type: cell-based; details: 10 μM
T14 construct: purchased DiscoverX (Eurofins) SafetyScan44
Experimental: as §2

T13 sequence (P35372 whole entry): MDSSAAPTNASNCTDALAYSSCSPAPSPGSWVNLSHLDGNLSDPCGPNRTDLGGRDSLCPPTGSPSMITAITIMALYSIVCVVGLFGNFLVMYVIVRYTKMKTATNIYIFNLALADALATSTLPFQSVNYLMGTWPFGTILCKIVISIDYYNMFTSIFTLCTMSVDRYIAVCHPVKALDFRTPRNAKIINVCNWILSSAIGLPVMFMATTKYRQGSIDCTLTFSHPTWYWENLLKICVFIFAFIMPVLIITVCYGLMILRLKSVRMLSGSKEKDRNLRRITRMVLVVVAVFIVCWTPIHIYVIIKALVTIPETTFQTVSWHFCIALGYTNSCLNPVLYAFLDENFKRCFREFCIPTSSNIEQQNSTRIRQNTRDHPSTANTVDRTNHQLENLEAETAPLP
T2 sequence (P41595 whole entry): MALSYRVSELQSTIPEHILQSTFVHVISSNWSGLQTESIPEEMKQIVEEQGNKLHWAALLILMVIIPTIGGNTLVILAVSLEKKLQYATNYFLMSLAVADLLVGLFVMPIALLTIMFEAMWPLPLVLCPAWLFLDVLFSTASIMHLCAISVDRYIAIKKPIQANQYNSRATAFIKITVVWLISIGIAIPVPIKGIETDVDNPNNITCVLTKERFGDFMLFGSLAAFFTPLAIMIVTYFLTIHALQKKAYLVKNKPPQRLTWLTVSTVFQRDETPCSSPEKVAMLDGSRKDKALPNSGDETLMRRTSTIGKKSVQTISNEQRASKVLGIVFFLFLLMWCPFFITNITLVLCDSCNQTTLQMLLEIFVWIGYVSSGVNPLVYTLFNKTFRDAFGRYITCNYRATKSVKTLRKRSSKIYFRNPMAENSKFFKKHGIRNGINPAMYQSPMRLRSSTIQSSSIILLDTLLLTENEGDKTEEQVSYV
T3 sequence (P41145 whole entry): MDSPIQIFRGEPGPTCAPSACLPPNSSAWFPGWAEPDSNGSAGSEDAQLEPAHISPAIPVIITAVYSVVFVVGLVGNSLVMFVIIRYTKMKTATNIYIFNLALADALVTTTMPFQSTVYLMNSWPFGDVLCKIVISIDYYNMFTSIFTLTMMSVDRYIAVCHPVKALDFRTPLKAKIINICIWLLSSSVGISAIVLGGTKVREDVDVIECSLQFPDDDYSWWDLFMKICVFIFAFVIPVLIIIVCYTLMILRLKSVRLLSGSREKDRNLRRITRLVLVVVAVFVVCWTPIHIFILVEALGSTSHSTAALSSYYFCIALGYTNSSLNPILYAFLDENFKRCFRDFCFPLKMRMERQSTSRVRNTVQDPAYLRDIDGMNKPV
T14 sequence (P46098 24-478): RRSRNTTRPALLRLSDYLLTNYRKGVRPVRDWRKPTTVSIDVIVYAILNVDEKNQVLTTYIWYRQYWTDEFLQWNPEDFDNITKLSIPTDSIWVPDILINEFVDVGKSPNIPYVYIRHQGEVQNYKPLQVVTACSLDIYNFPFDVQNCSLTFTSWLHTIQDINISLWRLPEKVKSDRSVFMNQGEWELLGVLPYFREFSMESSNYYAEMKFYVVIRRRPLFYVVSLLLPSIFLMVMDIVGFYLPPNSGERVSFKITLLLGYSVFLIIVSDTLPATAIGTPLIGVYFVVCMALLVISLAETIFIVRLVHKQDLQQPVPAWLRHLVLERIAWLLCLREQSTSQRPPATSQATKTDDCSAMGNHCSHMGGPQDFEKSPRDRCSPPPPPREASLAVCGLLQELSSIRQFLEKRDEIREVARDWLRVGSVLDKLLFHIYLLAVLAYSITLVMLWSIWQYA
T6 sequence (P25021 whole entry): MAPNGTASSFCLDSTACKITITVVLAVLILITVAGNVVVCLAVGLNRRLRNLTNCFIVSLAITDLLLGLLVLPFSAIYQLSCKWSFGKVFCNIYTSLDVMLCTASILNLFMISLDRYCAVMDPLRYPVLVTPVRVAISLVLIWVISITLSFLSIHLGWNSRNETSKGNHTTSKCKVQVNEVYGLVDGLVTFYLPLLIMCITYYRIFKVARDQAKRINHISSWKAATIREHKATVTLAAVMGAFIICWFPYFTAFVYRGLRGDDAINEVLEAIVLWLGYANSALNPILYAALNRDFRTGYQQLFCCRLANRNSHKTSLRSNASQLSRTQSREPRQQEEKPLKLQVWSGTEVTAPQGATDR
T7 sequence (P08908 whole entry): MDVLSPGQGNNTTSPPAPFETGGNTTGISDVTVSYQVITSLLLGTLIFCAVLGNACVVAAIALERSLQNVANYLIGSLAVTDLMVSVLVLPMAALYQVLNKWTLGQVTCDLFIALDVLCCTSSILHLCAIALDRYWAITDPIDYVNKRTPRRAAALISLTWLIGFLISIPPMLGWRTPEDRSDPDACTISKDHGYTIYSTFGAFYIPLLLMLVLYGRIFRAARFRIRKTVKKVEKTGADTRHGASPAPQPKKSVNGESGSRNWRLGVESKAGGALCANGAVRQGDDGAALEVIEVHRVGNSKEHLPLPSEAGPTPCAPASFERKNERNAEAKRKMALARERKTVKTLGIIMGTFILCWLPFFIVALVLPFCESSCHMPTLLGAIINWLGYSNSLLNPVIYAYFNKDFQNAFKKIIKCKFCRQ
T4 sequence (P11229 whole entry): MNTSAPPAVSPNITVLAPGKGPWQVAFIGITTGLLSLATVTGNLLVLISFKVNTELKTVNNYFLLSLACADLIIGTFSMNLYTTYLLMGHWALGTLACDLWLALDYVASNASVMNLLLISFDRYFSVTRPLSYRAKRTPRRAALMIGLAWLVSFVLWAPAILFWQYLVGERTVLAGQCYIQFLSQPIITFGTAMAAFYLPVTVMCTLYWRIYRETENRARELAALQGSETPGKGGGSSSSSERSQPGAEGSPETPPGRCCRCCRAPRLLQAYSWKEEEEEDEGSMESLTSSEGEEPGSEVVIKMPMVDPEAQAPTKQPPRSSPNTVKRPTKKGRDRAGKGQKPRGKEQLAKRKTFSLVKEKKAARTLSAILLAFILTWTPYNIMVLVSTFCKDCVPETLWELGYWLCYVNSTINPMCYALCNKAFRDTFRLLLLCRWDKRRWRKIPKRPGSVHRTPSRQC
T10 sequence (P21554 whole entry): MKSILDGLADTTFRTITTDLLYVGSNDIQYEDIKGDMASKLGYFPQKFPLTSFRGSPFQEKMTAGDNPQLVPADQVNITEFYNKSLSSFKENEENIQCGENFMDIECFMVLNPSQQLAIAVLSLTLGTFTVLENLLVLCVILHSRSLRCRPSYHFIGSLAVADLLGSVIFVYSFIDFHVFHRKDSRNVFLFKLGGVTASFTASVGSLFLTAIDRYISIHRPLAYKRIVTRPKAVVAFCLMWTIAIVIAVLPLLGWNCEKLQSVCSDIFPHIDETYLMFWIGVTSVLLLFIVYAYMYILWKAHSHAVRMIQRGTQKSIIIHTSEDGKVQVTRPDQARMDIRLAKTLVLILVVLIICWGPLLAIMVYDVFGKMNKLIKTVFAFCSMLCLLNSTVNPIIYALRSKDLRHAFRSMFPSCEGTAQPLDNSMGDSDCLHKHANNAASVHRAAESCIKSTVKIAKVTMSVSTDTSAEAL
Chain of PI3Kα (P42336 whole entry): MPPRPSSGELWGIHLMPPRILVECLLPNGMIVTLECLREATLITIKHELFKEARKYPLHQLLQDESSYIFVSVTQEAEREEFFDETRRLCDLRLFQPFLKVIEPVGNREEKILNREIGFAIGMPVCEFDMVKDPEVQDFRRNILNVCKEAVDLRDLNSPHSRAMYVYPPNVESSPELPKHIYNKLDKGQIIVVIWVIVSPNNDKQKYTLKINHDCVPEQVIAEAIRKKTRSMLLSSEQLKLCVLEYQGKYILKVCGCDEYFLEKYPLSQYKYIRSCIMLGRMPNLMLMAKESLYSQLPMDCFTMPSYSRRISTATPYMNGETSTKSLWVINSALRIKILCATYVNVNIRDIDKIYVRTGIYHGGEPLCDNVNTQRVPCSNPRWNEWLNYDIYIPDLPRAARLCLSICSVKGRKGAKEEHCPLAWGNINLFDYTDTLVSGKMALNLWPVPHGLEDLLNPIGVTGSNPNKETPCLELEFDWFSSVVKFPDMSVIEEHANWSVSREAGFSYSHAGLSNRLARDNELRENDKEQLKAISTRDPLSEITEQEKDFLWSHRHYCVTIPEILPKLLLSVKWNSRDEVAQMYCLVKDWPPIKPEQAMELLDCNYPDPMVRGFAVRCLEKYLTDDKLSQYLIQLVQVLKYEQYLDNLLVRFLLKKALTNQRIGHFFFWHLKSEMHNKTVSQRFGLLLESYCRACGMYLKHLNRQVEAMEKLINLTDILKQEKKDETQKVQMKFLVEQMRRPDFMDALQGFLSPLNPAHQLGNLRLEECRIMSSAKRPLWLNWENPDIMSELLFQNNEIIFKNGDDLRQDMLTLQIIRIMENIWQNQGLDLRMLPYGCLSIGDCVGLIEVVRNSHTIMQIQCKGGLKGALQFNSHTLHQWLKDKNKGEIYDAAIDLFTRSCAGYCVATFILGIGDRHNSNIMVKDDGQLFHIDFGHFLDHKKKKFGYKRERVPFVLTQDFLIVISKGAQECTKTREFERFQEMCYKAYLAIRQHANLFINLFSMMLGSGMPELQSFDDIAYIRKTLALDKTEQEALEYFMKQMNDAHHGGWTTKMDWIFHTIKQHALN

## CC(C)(C)N1CCN(Cc2cc3nc(-c4cncc5[nH]ccc45)cc(N4CCOCC4)n3n2)CC1 [CPL302-253]
[1]; 0.3 mg/kg intratracheal, time 2 h
  concentration in Plasma, single animals: 16.45
[1]; in vivo
  concentration in the blood compared with the lungs: two orders of magnitude lower
  distribution after intratracheal administration: exclusively accumulated in the lung tissue and BAL with minor penetration to the circulation
[2]
  concentration inducing decrease of Plasminogen Activator Inhibitor-1 expression: ≥ 150 nM
  decrease of Plasminogen Activator Inhibitor-1 expression, effect size: lower than 0.2 log10
PI3Kβ
  Kd: 390 nM
PI3Kγ
  Kd: 4800 nM
PI3Kα
  Kd: 1900 nM
neutrophils; 1 μg/ml LPS
  IL-8 release (Fig 4B), single replicates: 471 and 860 and 464
neutrophils; 100 μg/ml CSE
  IL-8 release (Fig 4A), single replicates: 378 and 136 and 362
neutrophils; after CSE or LPS stimulation
  IL-8 production by neutrophils: reduced IL-8 production
PI3Kδ
  Kd: 0.85 nM
HTR2B; Agonist mode
  % Response HTR2B Agonist: 1.5%
HTR2B; Antagonist mode
  % Response HTR2B Antagonist: 12.6%
OPRK1; Agonist mode
  % Response OPRK1 Agonist: -11.0%
OPRK1; Antagonist mode
  % Response OPRK1 Antagonist: 0.3%
CHRM1; Agonist mode
  % Response CHRM1 Agonist: 1.2%
CHRM1; Antagonist mode
  % Response CHRM1 Antagonist: 48.1%
PDE3A
  % Response PDE3A Inhibitor: -8.1%
HRH2; Agonist mode
  % Response HRH2 Agonist: 0.6%
HRH2; Antagonist mode
  % Response HRH2 Antagonist: 4.2%
HTR1A; Agonist mode
  % Response HTR1A Agonist: 5.6%
HTR1A; Antagonist mode
  % Response HTR1A Antagonist: -4.8%
SERT
  % Response SERT Blocker: 21.5%
COX2
  % Response COX2 Inhibitor: 11.9%
CNR1; Agonist mode
  % Response CNR1 Agonist: -9.2%
CNR1; Antagonist mode
  % Response CNR1 Antagonist: -1.3%
DAT
  % Response DAT Blocker: 56.1%
NET
  % Response NET Blocker: 8.5%
OPRM1; Agonist mode
  % Response OPRM1 Agonist: -9.0%
OPRM1; Antagonist mode
  % Response OPRM1 Antagonist: 0.2%
HTR3A; Blocker mode
  % Response HTR3A Blocker: 19.5%
HTR3A; Opener mode
  % Response HTR3A Opener: -0.8%
